As usually defined, the inhibition is the drop in the measured response relative to a control, in per cent. Higher therefore signals a strong effect.

From paper PMC5761851, “Application of a phenotypic drug discovery strategy to identify biological and chemical starting points for inhibition of TSLP production in lung epithelial cells” (PLoS ONE, 2018) come the findings set out here.

Common to all, as to test: kinase selectivity panel
What all share (type): biochemical

For one test, the target named is T1, FGFR1 (Homo sapiens, UniProt P11362).
T1 construct: purchased Eurofins Pharma Discovery Services (KinaseProfiler; Cerep BioPrint panel)
Conditions: read-out: percentage of control activity (POC), FGFR1. In outline:
(§1)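 IC50 values derive from 9 duplicate concentrations, run only for activities picked after an initial 10 μM duplicate screen across 125 representative kinases.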

For the next test, the target named is T2, Flt3 (Homo sapiens, UniProt P36888).
T2 construct: purchased Eurofins Pharma Discovery Services (KinaseProfiler; Cerep BioPrint panel)
T2 sequence (P36888 27-993): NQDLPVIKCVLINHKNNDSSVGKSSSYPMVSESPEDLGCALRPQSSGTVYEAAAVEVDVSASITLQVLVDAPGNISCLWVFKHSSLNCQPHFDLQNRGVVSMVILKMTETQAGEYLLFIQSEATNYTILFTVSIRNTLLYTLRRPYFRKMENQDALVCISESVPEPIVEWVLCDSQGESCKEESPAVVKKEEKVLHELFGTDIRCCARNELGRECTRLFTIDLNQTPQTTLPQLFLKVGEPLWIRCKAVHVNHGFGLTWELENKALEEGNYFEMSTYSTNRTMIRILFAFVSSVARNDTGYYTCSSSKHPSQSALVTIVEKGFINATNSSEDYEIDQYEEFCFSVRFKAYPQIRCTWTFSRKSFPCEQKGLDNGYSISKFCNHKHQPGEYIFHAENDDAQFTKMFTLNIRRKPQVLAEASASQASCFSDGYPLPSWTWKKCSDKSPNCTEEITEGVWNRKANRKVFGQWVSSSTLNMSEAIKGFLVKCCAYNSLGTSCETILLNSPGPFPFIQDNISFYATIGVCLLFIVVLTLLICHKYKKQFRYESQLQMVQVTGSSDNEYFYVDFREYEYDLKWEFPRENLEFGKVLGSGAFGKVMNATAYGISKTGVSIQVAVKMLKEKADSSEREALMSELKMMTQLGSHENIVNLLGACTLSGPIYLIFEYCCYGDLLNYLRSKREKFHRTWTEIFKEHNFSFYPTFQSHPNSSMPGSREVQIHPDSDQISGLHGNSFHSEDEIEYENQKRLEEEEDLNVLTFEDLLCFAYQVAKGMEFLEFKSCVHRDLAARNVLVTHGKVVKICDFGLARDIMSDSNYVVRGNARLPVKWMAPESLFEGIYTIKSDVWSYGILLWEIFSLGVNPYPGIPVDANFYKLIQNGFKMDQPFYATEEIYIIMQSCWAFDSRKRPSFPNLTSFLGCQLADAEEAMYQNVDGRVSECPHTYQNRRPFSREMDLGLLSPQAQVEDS
Conditions: read-out: percentage of control activity (POC), Flt3. In outline:
as §1

For the next test, the target named is T3, Fyn (Homo sapiens, UniProt P06241).
T3 construct: purchased Eurofins Pharma Discovery Services (KinaseProfiler; Cerep BioPrint panel)
Conditions: read-out: percentage of control activity (POC), Fyn. The gist of the method: as §1

The target in the next test is T4, GSK3α (Homo sapiens, UniProt P49840).
T4 construct: purchased Eurofins Pharma Discovery Services (KinaseProfiler; Cerep BioPrint panel)
T4 sequence (P49840 whole entry): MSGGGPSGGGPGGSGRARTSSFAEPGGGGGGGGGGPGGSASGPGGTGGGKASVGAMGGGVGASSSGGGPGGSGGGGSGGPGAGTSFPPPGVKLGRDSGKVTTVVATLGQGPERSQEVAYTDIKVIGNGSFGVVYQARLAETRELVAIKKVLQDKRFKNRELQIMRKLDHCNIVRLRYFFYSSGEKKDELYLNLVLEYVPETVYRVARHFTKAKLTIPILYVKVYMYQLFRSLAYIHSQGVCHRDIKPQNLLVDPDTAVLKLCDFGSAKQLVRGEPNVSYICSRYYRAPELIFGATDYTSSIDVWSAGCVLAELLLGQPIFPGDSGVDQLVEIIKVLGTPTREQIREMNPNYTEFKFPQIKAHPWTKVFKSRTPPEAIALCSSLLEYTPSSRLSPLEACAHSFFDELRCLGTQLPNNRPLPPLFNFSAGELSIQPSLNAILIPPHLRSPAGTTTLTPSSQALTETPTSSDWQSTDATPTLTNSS
Conditions: read-out: percentage of control activity (POC), GSK3α. In outline: as §1

The target of the next test is T5, JAK3 (Homo sapiens, UniProt P52333).
T5 construct: purchased Eurofins Pharma Discovery Services (KinaseProfiler; Cerep BioPrint panel)
T5 sequence (P52333 1-1124): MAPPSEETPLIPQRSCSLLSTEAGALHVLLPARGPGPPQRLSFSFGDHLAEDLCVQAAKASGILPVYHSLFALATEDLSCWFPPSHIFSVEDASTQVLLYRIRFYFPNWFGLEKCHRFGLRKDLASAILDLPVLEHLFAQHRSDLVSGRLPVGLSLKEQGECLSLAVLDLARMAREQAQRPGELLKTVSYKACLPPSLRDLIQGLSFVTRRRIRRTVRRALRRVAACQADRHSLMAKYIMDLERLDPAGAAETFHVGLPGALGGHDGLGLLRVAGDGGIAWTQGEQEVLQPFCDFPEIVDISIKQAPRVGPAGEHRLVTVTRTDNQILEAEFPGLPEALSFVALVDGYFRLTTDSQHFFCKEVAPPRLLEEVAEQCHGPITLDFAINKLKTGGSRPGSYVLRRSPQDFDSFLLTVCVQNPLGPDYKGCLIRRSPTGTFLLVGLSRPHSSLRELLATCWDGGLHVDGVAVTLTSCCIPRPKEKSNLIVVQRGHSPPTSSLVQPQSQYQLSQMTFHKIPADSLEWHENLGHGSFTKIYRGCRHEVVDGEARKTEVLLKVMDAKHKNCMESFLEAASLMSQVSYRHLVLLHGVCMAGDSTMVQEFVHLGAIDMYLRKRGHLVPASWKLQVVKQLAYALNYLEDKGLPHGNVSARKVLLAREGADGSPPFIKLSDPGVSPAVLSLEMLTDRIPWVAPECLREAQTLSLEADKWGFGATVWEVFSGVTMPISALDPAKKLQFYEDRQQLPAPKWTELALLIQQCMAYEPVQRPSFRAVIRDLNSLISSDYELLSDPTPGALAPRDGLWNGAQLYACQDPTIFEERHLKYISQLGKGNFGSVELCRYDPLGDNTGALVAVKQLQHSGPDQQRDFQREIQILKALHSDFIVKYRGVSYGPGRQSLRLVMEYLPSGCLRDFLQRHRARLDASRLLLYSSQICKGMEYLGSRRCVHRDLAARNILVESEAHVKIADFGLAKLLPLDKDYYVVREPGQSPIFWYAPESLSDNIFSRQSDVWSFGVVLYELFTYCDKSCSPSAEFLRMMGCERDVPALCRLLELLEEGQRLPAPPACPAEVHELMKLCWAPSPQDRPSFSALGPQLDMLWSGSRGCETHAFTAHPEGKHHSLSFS
The conditions noted are these: read-out: percentage of control activity (POC), JAK3. In outline:
as §1

In the next test the target is T6, LOK (Homo sapiens, UniProt O94804).
T6 construct: purchased Eurofins Pharma Discovery Services (KinaseProfiler; Cerep BioPrint panel)
T6 sequence (O94804 whole entry): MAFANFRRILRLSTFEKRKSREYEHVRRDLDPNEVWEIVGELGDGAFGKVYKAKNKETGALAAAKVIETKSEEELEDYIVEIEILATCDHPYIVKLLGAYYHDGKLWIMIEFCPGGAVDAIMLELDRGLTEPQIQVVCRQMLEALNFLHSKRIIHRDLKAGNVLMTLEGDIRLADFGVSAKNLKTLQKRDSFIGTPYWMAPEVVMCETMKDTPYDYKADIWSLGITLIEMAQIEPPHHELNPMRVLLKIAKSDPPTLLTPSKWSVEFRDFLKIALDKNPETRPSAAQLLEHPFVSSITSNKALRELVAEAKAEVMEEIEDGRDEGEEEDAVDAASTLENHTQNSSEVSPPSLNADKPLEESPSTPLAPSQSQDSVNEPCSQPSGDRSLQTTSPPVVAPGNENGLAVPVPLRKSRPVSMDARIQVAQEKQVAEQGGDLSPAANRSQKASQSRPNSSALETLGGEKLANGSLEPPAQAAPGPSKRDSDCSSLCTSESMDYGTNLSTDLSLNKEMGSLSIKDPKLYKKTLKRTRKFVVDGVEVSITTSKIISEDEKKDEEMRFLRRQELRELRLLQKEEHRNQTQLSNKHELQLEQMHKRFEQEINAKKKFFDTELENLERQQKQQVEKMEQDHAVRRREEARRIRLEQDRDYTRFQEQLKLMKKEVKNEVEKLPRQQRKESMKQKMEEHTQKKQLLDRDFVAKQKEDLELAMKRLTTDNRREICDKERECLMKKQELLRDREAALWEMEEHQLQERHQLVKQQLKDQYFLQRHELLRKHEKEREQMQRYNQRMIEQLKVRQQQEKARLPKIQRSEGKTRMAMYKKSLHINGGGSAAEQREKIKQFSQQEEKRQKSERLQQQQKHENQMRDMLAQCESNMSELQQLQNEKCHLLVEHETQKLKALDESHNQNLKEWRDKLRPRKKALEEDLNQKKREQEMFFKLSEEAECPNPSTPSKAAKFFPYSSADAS
Conditions: read-out: percentage of control activity (POC), LOK. The gist of the method:
as §1

A further test has as its target T7, PI3K (p110b/p85a) (Homo sapiens, UniProt P42338).
T7 construct: purchased Eurofins Pharma Discovery Services (KinaseProfiler; Cerep BioPrint panel)
The conditions noted are these: read-out: percentage of control activity (POC), PI3K (p110b/p85a). In outline:
as §1

The target in the next test is T8, PTK5 (Homo sapiens, UniProt P42685).
T8 construct: purchased Eurofins Pharma Discovery Services (KinaseProfiler; Cerep BioPrint panel)
T8 sequence (P42685 whole entry): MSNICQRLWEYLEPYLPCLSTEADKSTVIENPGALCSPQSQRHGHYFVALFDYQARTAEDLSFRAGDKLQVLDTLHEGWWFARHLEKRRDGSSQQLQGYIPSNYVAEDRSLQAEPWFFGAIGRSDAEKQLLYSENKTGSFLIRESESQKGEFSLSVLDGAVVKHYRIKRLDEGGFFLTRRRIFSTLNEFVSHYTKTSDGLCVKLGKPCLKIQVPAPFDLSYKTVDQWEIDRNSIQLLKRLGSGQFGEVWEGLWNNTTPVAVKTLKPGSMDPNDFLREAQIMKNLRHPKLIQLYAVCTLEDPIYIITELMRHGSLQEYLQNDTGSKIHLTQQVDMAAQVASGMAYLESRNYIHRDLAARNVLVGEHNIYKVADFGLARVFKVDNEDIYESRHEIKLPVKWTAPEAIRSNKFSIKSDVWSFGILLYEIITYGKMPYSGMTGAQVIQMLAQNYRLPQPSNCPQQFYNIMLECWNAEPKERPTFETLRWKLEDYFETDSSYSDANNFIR
Conditions: for remaining activity at 10 µM: read-out: percentage of control activity (POC), PTK5. In outline:
as §1

Another test has as its target T9, RIPK2 (Homo sapiens, UniProt O43353).
T9 construct: purchased Eurofins Pharma Discovery Services (KinaseProfiler; Cerep BioPrint panel)
Conditions: read-out: percentage of control activity (POC), RIPK2. In outline:
as §1

A further test addresses T10, Rsk1 (Homo sapiens, UniProt Q15418).
T10 construct: purchased Eurofins Pharma Discovery Services (KinaseProfiler; Cerep BioPrint panel)
The conditions noted are these: read-out: percentage of control activity (POC), Rsk1. The gist of the method: as §1

T9 sequence (O43353 whole entry): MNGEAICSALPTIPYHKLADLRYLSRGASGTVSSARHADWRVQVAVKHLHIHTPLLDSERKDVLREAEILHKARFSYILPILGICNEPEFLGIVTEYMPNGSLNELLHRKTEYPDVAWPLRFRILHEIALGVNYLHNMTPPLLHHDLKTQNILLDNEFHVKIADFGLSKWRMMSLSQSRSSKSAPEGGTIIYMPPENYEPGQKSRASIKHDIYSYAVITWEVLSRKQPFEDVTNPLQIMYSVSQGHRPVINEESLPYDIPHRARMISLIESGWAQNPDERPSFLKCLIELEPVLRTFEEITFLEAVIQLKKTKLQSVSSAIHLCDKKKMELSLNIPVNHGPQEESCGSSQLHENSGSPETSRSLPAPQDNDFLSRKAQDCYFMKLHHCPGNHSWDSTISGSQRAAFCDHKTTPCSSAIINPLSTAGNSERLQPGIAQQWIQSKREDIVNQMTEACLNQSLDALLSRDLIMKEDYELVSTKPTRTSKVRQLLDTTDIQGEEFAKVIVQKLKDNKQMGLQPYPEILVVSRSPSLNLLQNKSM
T10 sequence (Q15418 whole entry): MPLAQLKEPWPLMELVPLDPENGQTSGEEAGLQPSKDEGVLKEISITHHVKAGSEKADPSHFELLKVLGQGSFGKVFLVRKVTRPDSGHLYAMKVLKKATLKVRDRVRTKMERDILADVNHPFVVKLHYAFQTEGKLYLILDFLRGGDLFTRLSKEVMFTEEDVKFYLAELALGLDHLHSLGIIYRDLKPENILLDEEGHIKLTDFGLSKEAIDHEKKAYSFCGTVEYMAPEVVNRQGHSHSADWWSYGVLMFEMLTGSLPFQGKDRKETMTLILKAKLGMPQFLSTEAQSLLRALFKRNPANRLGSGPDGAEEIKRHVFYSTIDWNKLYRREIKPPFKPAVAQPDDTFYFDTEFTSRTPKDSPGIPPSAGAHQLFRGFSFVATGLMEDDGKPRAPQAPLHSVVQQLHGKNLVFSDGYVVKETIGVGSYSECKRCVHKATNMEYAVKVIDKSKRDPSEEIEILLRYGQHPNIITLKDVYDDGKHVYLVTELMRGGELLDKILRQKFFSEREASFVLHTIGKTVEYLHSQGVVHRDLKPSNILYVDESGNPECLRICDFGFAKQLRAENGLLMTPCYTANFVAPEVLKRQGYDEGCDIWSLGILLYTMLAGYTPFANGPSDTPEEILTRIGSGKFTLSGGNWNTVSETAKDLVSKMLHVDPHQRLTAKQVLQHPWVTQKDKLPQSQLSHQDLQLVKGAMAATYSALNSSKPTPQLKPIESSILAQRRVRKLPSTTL
T7 sequence (P42338 whole entry): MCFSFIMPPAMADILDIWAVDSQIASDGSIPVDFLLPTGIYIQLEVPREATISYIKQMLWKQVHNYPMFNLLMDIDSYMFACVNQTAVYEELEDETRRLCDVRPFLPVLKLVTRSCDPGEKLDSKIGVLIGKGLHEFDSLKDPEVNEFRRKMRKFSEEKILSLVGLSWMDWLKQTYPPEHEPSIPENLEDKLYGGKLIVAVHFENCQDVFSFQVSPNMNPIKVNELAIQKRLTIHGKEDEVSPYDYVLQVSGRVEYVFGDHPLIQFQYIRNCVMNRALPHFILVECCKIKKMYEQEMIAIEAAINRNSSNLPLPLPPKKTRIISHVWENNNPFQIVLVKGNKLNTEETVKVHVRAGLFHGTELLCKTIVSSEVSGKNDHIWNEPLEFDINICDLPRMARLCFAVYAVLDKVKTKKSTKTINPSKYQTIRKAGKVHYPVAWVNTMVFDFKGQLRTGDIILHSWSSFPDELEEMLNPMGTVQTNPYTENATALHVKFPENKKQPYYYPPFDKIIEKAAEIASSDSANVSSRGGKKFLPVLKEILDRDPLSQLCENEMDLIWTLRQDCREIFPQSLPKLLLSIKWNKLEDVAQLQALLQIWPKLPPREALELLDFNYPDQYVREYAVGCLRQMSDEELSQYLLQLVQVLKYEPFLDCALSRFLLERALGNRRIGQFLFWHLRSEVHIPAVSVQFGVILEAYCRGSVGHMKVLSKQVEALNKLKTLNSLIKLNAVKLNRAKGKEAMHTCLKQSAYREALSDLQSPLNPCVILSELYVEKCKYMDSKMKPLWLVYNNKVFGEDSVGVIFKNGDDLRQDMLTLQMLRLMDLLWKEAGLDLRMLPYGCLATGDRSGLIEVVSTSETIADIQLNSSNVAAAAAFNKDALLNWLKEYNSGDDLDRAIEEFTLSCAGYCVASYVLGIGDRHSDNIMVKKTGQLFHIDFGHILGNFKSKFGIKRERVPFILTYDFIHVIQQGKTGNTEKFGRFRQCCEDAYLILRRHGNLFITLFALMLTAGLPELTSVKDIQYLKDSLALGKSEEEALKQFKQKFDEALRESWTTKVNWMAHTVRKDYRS
T7 sequence (P27986 whole entry partner): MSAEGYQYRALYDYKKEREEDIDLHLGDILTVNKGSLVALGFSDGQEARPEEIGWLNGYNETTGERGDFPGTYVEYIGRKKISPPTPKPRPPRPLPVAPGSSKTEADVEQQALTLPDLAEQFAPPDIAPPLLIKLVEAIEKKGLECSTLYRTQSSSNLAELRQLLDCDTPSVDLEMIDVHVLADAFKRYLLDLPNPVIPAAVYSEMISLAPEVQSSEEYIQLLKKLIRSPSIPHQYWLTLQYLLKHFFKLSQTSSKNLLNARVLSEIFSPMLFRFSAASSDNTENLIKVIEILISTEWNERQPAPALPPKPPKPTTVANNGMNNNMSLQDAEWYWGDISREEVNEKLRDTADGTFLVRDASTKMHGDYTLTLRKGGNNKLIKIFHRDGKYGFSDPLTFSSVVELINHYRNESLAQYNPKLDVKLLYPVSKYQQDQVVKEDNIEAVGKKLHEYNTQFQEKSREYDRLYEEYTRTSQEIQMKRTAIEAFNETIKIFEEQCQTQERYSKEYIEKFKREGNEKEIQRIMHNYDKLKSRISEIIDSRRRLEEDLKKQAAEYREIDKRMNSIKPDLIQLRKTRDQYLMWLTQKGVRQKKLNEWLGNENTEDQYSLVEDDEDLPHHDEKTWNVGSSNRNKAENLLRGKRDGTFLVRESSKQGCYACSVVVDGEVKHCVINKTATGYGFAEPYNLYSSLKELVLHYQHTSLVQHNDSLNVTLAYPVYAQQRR

In the case of `Cn1cc(-c2cccc(-c3nc(C(=O)NC4C5CC6CC4CC(O)(C6)C5)c(N)nc3N)c2)cn1` (stereo not drawn) [compound 4], the remaining activity at 10 µM at FGFR1 is 86%; at Flt3 it was 95%; on Fyn, 81%; on GSK3α, 76%; at JAK3, 89%; at LOK it was 109%. Besides, the remaining activity at 10 µM is 71% on PI3K (p110b/p85a), 54% on PTK5, 61% at RIPK2 and 87% at Rsk1.

Take `COc1c(NC(=O)c2ccc(C)c(-c3nnc4c(NCC(C)(C)C)nccn34)c2)cc(C(C)(C)C)cc1NS(C)(=O)=O` [compound 7, reference compound]: the remaining activity at 10 µM on FGFR1 is 109%; at Flt3, 110%; on Fyn, 99%; on GSK3α, 103%; at JAK3, 99%; on LOK, 135%. For the same compound, the remaining activity at 10 µM was determined as 87% on PI3K (p110b/p85a), 4% at PTK5, 100% on RIPK2 and 132% at Rsk1. This compound also showed an inhibition at 10 µM against PTK5 of 96%.

In the case of `Cc1ccc(C(=O)NCC2CC2)cc1-c1ccc2c(c1)NC(=O)C21CCCC1` [compound 3], the remaining activity at 10 µM on FGFR1 stood at 95%; at Flt3 it was 110%; at Fyn it was 97%; on GSK3α, 95%; at JAK3, 100%; at LOK it was 112%. Also, the remaining activity at 10 µM was 86% on PI3K (p110b/p85a), 56% at PTK5, 94% on RIPK2 and 100% at Rsk1.

As for `CC(C)(C)N1CCC(c2cc(-c3ccc(F)cc3Cl)c3cc[n+]([O-])c(-c4c(Cl)cccc4Cl)c3n2)CC1` [compound 2], the remaining activity at 10 µM is 80% on FGFR1; 104% on Flt3; 100% at Fyn; 107% at GSK3α; 102% on JAK3; 107% on LOK. Moreover, the remaining activity at 10 µM stood at 92% at PI3K (p110b/p85a), 97% at PTK5, 61% on RIPK2 and 104% on Rsk1.

On to `CS(=O)(=O)N1CCN(c2ccc(Nc3ncc(C(N)=O)c(NC4CC4)n3)cc2)CC1` [compound 5], for which the remaining activity at 10 µM is 3% on FGFR1; 1% on Flt3; 10% at Fyn; 40% on GSK3α; -2% at JAK3; 14% at LOK. The remaining activity at 10 µM at PI3K (p110b/p85a) worked out at 93%; on PTK5, 31%; on RIPK2, 81%; at Rsk1, 1%.
